{"source": "paper PMC7010297", "about": "“How the initiating ribosome copes with ppGpp to translate mRNAs” (PLoS Biology, 2020)", "key": {"70S IC": {"target": "T1, 70S IC (Escherichia coli, UniProt P0A705)", "T1 construct": "6xHis (N); made in house", "T1 sequence (P0A705 whole entry, looked up)": "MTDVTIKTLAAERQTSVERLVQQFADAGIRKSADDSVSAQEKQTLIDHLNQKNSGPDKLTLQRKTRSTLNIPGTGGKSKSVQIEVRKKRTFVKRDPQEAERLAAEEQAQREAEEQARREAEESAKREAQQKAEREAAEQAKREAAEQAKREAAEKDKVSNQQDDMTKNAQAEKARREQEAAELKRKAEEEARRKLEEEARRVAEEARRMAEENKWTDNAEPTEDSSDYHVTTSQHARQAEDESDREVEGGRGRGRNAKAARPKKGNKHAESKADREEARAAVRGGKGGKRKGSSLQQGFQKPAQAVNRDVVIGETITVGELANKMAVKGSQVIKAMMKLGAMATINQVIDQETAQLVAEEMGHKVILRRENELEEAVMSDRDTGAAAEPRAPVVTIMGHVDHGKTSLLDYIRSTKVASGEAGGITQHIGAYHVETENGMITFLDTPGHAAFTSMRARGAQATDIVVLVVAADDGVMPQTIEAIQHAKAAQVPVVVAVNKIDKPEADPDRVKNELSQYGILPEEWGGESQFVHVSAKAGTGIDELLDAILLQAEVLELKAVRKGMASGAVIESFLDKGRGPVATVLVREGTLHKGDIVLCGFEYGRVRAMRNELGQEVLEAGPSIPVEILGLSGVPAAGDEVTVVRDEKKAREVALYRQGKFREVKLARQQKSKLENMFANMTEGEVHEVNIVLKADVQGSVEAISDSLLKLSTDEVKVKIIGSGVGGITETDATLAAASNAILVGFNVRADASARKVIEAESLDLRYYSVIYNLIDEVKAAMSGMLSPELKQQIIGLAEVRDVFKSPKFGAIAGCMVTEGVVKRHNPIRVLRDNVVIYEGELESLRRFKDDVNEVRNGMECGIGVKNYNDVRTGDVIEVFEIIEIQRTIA", "test": "70S IC formation by Bpy-tRNAi accommodation, stopped-flow", "assay_type": "biochemical", "experimental": "(§1) Continuous lines indicate nonlinear regression fittings with a quadratic equation. Three measurements were performed; mean and standard deviation are plotted (S1 Data). (B) as (A) to measure the concentration dependence for each tested guanosine nucleotide at constant IF2 (1 μM). […] Continuous lines show best fits using exponential functions. (D) Formation of 70S IC as measured by Bpy-tRNAi accommodation in the P site of the ribosome; 0.1 μM 30S ICs were formed with Bpy-tRNAi and rapidly mixed with 0.3 μM 50S subunits on a stopped-flow apparatus as described in [14]. Colors are as in (C). Continuous lines show best fits using an exponential function for a single reaction step. Each stopped-flow trace results from the mean of 5 to 7 replicates.\n(§2) (A) Scheme of 70S IC formation. […] Time traces were analyzed by nonlinear regression with exponential terms. […] Formation of 70S IC, as measured by Bpy-tRNAi accommodation in the absence (F) or presence of 200 μM ppGpp (G). Time traces were analyzed by nonlinear regression with one exponential term. […] Continuous lines show best fits using an exponential function for a single reaction step. All time traces are mean values of 5 to 10 replicates. Bar graphs show mean and standard errors (error bars) derived from the nonlinear regression fitting (D,E,H,I) (S1 Data).\n(§3) To measure 70S pre-IC formation, a SX-20 stopped-flow instrument (Applied Photophysics, Leatherhead, UK) was set up for LS recording with an excitation wavelength of 430 nm. Scattered light was measured at an angle of 90° without a filter. Pseudo first-order conditions were approximated by using ≥3-fold excess of 50S subunits over 30S ICs; 0.2 μM 30S ICs were rapidly mixed in the instrument with 0.6 μM 50S at 25 °C. Bpy-tRNAi accommodation was measured essentially as described elsewhere. Briefly, 0.2 μM 30S ICs were formed using Bpy-tRNAi and rapidly mixed with 0.6 μM 50S at 25 °C. Fluorescence was excited at 470 nm and measured after a 495-nm longpass filter. Individual traces (6–11 traces) were averaged, and the resulting kinetic curve was approximated by single (F = A0 + A1*exp (-kapp1*t)) or double (F = A0 + A1*exp (-kapp1*t) + A2*exp (-kapp2*t)) exponential fit using Graphpad Prism 6.0 software (GraphPad, San Diego, California)."}, "IF2-bound 30S IC": {"target": "T2, IF2-bound 30S IC (Escherichia coli, UniProt P0A705)", "T2 construct": "6xHis (N); made in house", "T2 sequence (P0A705 whole entry, looked up)": "as above", "test": "30S IC formation by MST, guanosine nucleotide titration", "assay_type": "binding", "settings": "for MST Average / MST Replicates (a.u.): Fig 2B", "excerpt": "(§4) To monitor the interaction of initiator tRNA and 30S ribosomal subunits, we used Microscale Thermophoresis (MST) with a fluorescently labelled initiator tRNA (Bpy-tRNAi) (Fig 1B). MST allows to measure fluorescence in a constrained space. Changes on the readout derive from molecular drifts resulting from small thermal equilibrium perturbations. Upon equilibrium perturbations, the patterns of Bpy-tRNAi migration away from the observation space are related to bound and unbound states (Fig 1B). […] On the contrary, a decrease in thermophoresis indicated the dissociation of Bpy-tRNAi. The relation between fluorescence measured at both equilibriums (Ff to Fi, after and prior to the perturbation, respectively) as a function of ligand concentration allowed to determine dissociation constants of the interaction (Fig 1C).\nas §1\nMST was calculated from the respective fluorescence time dependencies (S3 Fig). […] Symbols as in (B). […] Continuous lines indicate nonlinear regression fittings with quadratic (B and E) or same-site competition (G) functions. Three measurements were performed; mean and standard deviations are plotted (S1 Data)."}, "[1]": {"target": "T3, 70S pre-IC (50S joining to 30S IC) (Escherichia coli, UniProt P0A705)", "T3 construct": "6xHis (N); made in house", "T3 sequence (P0A705 whole entry, looked up)": "as above", "test": "70S pre-IC formation by light scattering, stopped-flow", "assay_type": "biochemical", "settings": "30S complexes formed with 0.2 mM nucleotide, mixed with 50S subunits", "experimental": "as §1, §2, §3"}, "[2]": {"target": "T4, 30S IC (30S-bound IF2, Bpy-tRNAi) (Escherichia coli, UniProt P0A705)", "T4 construct": "6xHis (N); made in house", "T4 sequence (P0A705 whole entry, looked up)": "as above", "test": "30S IC formation measured by MST at increasing concentrations of IF2 with guanosine nucleotides", "assay_type": "binding", "settings": "Fig 2A", "excerpt": "as §4, §1"}}, "note": "Values joined by “and” are separate entries in the source; they are usually repeats but may differ in a detail not shown here. Identical values can stand only once.", "data": [{"smiles": "Nc1nc2c(ncn2[C@@H]2O[C@H](COP(=O)(O)OP(=O)(O)OP(=O)(O)O)[C@@H](OP(=O)(O)OP(=O)(O)O)[C@H]2O)c(=O)[nH]1", "note": "[pppGpp]", "values": [{"measurement": "kapp of Bpy-tRNAi accommodation (70S IC formation)", "setting": "70S IC; 30S ICs formed with 0.2 mM nucleotide, mixed with 50S subunits", "result": "1.2 ± 0.2", "unit": "s^–1"}, {"measurement": "Bpy-tRNAi accommodation slower than with GTP", "setting": "70S IC; compared to GTP-bound IF2", "result": 2, "unit": "fold"}, {"measurement": "MST Average", "setting": "IF2-bound 30S IC; nucleotide 0.005 µM", "result": 927.64, "unit": "a.u."}, {"measurement": "MST Replicates (a.u.)", "setting": "IF2-bound 30S IC; nucleotide 0.005 µM, constant IF2 (1 μM)", "result": "925.66 a.u. and 928.15 a.u. and 929.12 a.u."}, {"measurement": "MST Average", "setting": "IF2-bound 30S IC; nucleotide 0.01 µM", "result": 929.62, "unit": "a.u."}, {"measurement": "MST Replicates (a.u.)", "setting": "IF2-bound 30S IC; nucleotide 0.01 µM", "result": "928.28 a.u. and 930.44 a.u. and 930.13 a.u."}, {"measurement": "MST Average", "setting": "IF2-bound 30S IC; nucleotide 0.02 µM", "result": 931.44, "unit": "a.u."}, {"measurement": "MST Replicates (a.u.)", "setting": "IF2-bound 30S IC; nucleotide 0.02 µM", "result": "929.17 a.u. and 931.64 a.u. and 933.52 a.u."}, {"measurement": "MST Average", "setting": "IF2-bound 30S IC; nucleotide 0.04 µM", "result": 936.26, "unit": "a.u."}, {"measurement": "MST Replicates (a.u.)", "setting": "IF2-bound 30S IC; nucleotide 0.04 µM", "result": "935.68 a.u. and 936.43 a.u. and 936.67 a.u."}, {"measurement": "MST Average", "setting": "IF2-bound 30S IC; nucleotide 0.08 µM", "result": 942.88, "unit": "a.u."}, {"measurement": "MST Replicates (a.u.)", "setting": "IF2-bound 30S IC; nucleotide 0.08 µM", "result": "942.08 a.u. and 943.53 a.u. and 943.02 a.u."}, {"measurement": "MST Average", "setting": "IF2-bound 30S IC; nucleotide 0.16 µM", "result": 950.27, "unit": "a.u."}, {"measurement": "MST Replicates (a.u.)", "setting": "IF2-bound 30S IC; nucleotide 0.16 µM", "result": "947.31 a.u. and 952.19 a.u. and 951.31 a.u."}, {"measurement": "MST Average", "setting": "IF2-bound 30S IC; nucleotide 0.31 µM", "result": 960.78, "unit": "a.u."}, {"measurement": "MST Replicates (a.u.)", "setting": "IF2-bound 30S IC; nucleotide 0.31 µM", "result": "960.77 a.u. and 960.89 a.u. and 960.69 a.u."}, {"measurement": "MST Average", "setting": "IF2-bound 30S IC; nucleotide 0.63 µM", "result": 981.69, "unit": "a.u."}, {"measurement": "MST Replicates (a.u.)", "setting": "IF2-bound 30S IC; nucleotide 0.63 µM", "result": "982.02 a.u. and 981.68 a.u. and 981.38 a.u."}, {"measurement": "MST Average", "setting": "IF2-bound 30S IC; nucleotide 1.25 µM", "result": 1004.44, "unit": "a.u."}, {"measurement": "MST Replicates (a.u.)", "setting": "IF2-bound 30S IC; nucleotide 1.25 µM", "result": "1006.47 a.u. and 1004.17 a.u. and 1002.69 a.u."}, {"measurement": "MST Average", "setting": "IF2-bound 30S IC; nucleotide 2.50 µM", "result": 1012.89, "unit": "a.u."}, {"measurement": "MST Replicates (a.u.)", "setting": "IF2-bound 30S IC; nucleotide 2.50 µM", "result": "1008.41 a.u. and 1015.77 a.u. and 1014.48 a.u."}, {"measurement": "MST Average", "setting": "IF2-bound 30S IC; nucleotide 5.00 µM", "result": 1025.14, "unit": "a.u."}, {"measurement": "MST Replicates (a.u.)", "setting": "IF2-bound 30S IC; nucleotide 5.00 µM", "result": "1023.12 a.u. and 1027.23 a.u. and 1025.07 a.u."}, {"measurement": "MST Average", "setting": "IF2-bound 30S IC; nucleotide 10.00 µM", "result": 1030.92, "unit": "a.u."}, {"measurement": "MST Replicates (a.u.)", "setting": "IF2-bound 30S IC; nucleotide 10.00 µM", "result": "1031.01 a.u. and 1031.12 a.u. and 1030.63 a.u."}, {"measurement": "MST Average", "setting": "IF2-bound 30S IC; nucleotide 20.00 µM", "result": 1013.38, "unit": "a.u."}, {"measurement": "MST Replicates (a.u.)", "setting": "IF2-bound 30S IC; nucleotide 20.00 µM", "result": "1013.59 a.u. and 1013.77 a.u. and 1012.79 a.u."}, {"measurement": "Kd", "setting": "IF2-bound 30S IC; nucleotide titration at constant IF2 (1 μM), read-out: KD for the IF2-bound 30S IC", "result": "500 ± 100", "unit": "nM"}, {"measurement": "kapp of 70S pre-IC formation (LS)", "setting": "[1]", "result": "2.9 ± 0.3", "unit": "s^–1"}, {"measurement": "MST Average", "setting": "[2]; IF2 0.16 µM", "result": 944.96, "unit": "a.u."}, {"measurement": "MST Replicates (a.u.)", "setting": "[2]; IF2 0.16 µM, in the presence of the nucleotide", "result": "945.84 a.u. (2×) and 943.18 a.u."}, {"measurement": "MST Average", "setting": "[2]; IF2 0.31 µM", "result": 951.85, "unit": "a.u."}, {"measurement": "MST Replicates (a.u.)", "setting": "[2]; IF2 0.31 µM", "result": "948.28 a.u. and 951.55 a.u. and 955.73 a.u."}, {"measurement": "MST Average", "setting": "[2]; IF2 0.63 µM", "result": 965.81, "unit": "a.u."}, {"measurement": "MST Replicates (a.u.)", "setting": "[2]; IF2 0.63 µM", "result": "963.82 a.u. and 965.27 a.u. and 968.34 a.u."}, {"measurement": "MST Average", "setting": "[2]; IF2 1.25 µM", "result": 989.55, "unit": "a.u."}, {"measurement": "MST Replicates (a.u.)", "setting": "[2]; IF2 1.25 µM", "result": "985.24 a.u. and 988.50 a.u. and 994.92 a.u."}, {"measurement": "MST Average", "setting": "[2]; IF2 2.50 µM", "result": 1020.82, "unit": "a.u."}, {"measurement": "MST Replicates (a.u.)", "setting": "[2]; IF2 2.50 µM", "result": "1014.01 a.u. and 1021.45 a.u. and 1027.00 a.u."}, {"measurement": "MST Average", "setting": "[2]; IF2 5.00 µM", "result": 1015.83, "unit": "a.u."}, {"measurement": "MST Replicates (a.u.)", "setting": "[2]; IF2 5.00 µM", "result": "1011.56 a.u. and 1015.17 a.u. and 1020.77 a.u."}]}]}
